Test results published in article PMC6257627, “Target Validation and Identification of Novel Boronate Inhibitors of the Plasmodium falciparum Proteasome” (Journal of Medicinal Chemistry, 2018).
pIC50: −log10 of the molar value. *: point of attachment. AMC = Cc1cc(=O)oc2cc(N*)ccc12

Key:
[1] = target: Plasmodium falciparum 20S proteasome β1 (Plasmodium falciparum, UniProt Q8I0U7+Q8I6T3); type: biochemical
[2] = target: Plasmodium falciparum 20S proteasome β5 (Plasmodium falciparum, UniProt A0A5K1K7U1+Q8IJT1); assay: Pf20S proteasome fluorogenic assay, chymotrypsin-like activity (Ac-WLA-AMC); type: biochemical; conditions: 0.8 μM carfilzomib
Sequence of Plasmodium falciparum 20S proteasome β5 (Q9UL46 2-239): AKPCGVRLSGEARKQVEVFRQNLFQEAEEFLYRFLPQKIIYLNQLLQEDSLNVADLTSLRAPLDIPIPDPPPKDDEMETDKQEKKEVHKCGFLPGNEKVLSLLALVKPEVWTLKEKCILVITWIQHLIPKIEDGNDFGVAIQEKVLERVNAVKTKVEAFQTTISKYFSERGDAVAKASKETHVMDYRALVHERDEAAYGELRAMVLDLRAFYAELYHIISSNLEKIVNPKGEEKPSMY
Sequence of Plasmodium falciparum 20S proteasome β5 (A0A5K1K7U1 entry or part of it): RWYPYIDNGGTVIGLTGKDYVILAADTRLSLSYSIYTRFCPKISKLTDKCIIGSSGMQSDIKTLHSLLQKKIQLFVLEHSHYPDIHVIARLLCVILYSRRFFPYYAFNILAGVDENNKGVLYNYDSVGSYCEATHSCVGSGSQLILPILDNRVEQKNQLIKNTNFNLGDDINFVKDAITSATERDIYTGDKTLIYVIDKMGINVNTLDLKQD
Sequence of Plasmodium falciparum 20S proteasome β5 (Q06323 whole entry, further chain): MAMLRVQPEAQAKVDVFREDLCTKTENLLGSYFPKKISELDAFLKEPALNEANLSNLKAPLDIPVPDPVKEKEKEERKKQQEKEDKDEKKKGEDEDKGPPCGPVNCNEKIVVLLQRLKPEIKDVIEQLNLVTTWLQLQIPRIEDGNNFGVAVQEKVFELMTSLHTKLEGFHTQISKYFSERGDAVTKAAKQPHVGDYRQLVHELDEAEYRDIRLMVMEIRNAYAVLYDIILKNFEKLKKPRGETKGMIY
Sequence of Plasmodium falciparum 20S proteasome β5 (Q8IJT1 entry or part of it): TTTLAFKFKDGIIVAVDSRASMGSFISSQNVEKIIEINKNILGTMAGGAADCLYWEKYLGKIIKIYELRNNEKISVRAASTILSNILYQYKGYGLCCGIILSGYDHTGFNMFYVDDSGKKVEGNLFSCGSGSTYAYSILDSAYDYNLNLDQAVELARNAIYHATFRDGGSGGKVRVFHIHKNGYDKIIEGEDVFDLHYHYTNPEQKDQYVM

[3] = target: Plasmodium falciparum 20S proteasome β2 (Plasmodium falciparum, UniProt Q8I261+Q8I6T3); type: biochemical
Sequence of Plasmodium falciparum 20S proteasome β2 (Q8I261 entry or part of it): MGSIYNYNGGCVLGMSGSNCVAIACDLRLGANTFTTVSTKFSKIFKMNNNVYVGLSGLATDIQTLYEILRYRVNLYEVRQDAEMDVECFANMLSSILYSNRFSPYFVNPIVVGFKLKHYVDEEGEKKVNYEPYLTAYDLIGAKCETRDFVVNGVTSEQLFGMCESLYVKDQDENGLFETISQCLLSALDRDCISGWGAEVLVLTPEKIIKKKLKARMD
Sequence of Plasmodium falciparum 20S proteasome β2 (Q06323 whole entry, further chain): as the sequence (Q06323 whole entry, further chain) above
Sequence of Plasmodium falciparum 20S proteasome β2 (Q8I6T3 entry or part of it): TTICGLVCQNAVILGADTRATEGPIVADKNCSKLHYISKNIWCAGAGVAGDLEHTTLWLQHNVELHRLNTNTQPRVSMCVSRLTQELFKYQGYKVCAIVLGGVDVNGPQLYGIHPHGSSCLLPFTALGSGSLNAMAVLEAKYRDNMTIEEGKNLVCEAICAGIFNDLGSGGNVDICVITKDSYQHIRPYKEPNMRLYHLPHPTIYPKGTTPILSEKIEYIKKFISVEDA
Sequence of Plasmodium falciparum 20S proteasome β2 (Q9UL46 2-239, further chain): as the sequence (Q9UL46 2-239) above

[4] = system: bortezomib-resistant 3D7 B1 line (clone B1a); assay: 72 h viability assay, bortezomib-resistant B1 line / clone B1a; type: cell-based, Plasmodium falciparum; conditions: for cross-resistance of the bortezomib-resistant parasite line (B1): growth inhibition, versus 3D7; for bortezomib-resistant 3D7 B1 line LD50 (72 h): ring stage, mean ± SEM, n=3; for Bortezomib-resistant3D7 B1 LD50 (72-h): supplement CSV
Description: (§1) For standard assays of antiplasmodial activity, sorbitol-treated ring stage parasites were incubated with the drugs for 72 h and viability was assessed in the second cycle.[12] Drug pulse assays were performed as described previously.[47] For short pulse assays, tightly synchronized early ring stage parasites (1–3 h after invasion) at 0.2% hematocrit and 1–2% parasitemia were subjected to 3 h drug pulse at 37 °C and returned to culture until parasites reached trophozoite stage of the following cycle. Cells were then stained with 2 μM Syto-61 (Thermo Fisher Scientific), and their fluorescence was measured by flow cytometry (FACSCanto II cytometer; Becton Dickinson). Data were gated and analyzed using FCS Express software (version 3) to determine parasitemia of each sample. Viability represents the parasitemia normalized to untreated and “kill treated” controls, where “kill treated” refers to samples treated with 2 μM DHA for 48–72 h. Interactions between DHA and MPI-1 or MPI-4 against the K13 mutant (DHA resistant) Cam3.II P. falciparum strain, exposed to a 3 h pulsed treatment, were determined at 4 h after invasion as described previously.[12]
Prior to selection, an aliquot of the parental line was stocked as a reference for subsequent whole genome sequencing analysis. Several independent clones of P. falciparum 3D7 parasite line were cultured in Petri dishes exposed to increasing drug pressure for ∼30 weeks. Parasites were cloned by limiting dilution. For parasite extraction and genomic DNA isolation, cultures were scaled up to at least 4–5% parasitaemia, lysed in saponin, and genomic DNA was isolated using ISOLATE II Genomic DNA kit (Bioline). DNA libraries for each gDNA sample were prepared for sequencing using the Nextera XT kit as described previously.[50] Libraries were clustered and run on an Illumina HiSeq 2500 using the RapidRun mode, sequencing 100 base pairs in depth on either end. Paired-end reads were either aligned to the P. falciparum 3D7 reference genome (PlasmoDB version 13.0).

[5] = system: human constitutive proteasome and immunoproteasome catalytic subunits; assay: BMV037 active site probe competition, purified human 20S proteasomes; type: biochemical; conditions: for subunit specificity by BMV037 probe labeling, human constitutive proteasome and immunoproteasome: compounds 1 h, probe 2 h
[6] = system: P. falciparum Cam3.II^R539T; assay: 3 h pulsed exposure viability assay, K13 mutant early rings; type: cell-based, Plasmodium falciparum; conditions: for Cam3.II^R539T LD50 (3 h): early ring (1–3 h p.i.), 3 h pulse, viability in next cycle, mean ± SEM, n=3; for Cam3.IIR539T LD50 (3-h): supplement CSV
Description: as §1

[7] = system: P. falciparum Cam3.II^Rev; assay: 3 h pulsed exposure viability assay, K13 wild-type revertant early rings; type: cell-based, Plasmodium falciparum; conditions: for Cam3.II^Rev LD50 (3 h): early ring (1–3 h p.i.), 3 h pulse, viability in next cycle, mean ± SEM, n=3; for Cam3.IIRev LD50 (3-h): supplement CSV
Description: as §1

[8] = system: HepG2 cells; assay: HepG2 cellular toxicity (CellTiter-Glo, 72 h); type: cell-based, human; conditions: for HepG2 LD50 (72 h): 72 h incubation, mean ± SEM or half range, 2–4 experiments; for HepG2 LD50( 72-h): supplement CSV
[9] = system: Pf20S proteasome β1, β2, β5 subunits; type: biochemical, P. falciparum; conditions: compounds 1 h, purified Pf20S or infected erythrocytes
[10] = system: Pf20S proteasome subunits of bortezomib-resistant parasites; assay: BMV037 active site probe competition, bortezomib-resistant parasites; type: biochemical, P. falciparum; conditions: compounds 1 h
Description: Figure 3 Active site probe analysis of the proteasome subunit specificity of the selected compounds in 3D7 parent and bortezomib-resistant parasites. Purified Pf20S proteasome from wild-type 3D7 (A) and bortezomib-resistant (C) parasites or wild-type 3D7 (B) and bortezomib-resistant (D) trophozoite-infected erythrocytes were treated with compounds for 1 h, and activity-based probe (BMV037) labeling was performed (postlysis for the trophozoite samples). Fluorescent gel scans reveal subunits that remain active after treatment.
P. falciparum culture, purified Pf20S proteasomes, human constitutive proteasomes, or immunoproteasomes (Boston Biochem) were incubated with test compounds at 37 °C for 1 h. Treated parasite lysates (10 μg), Pf20S proteasomes (80 nM), human constitutive proteasomes (20 nM), or immuno-20S proteasomes (20 nM) were labeled with BMV037 (10 μM) at 37 °C for 2 h. Samples were mixed with SDS loading buffer and heated at 95 °C for 5 min. Samples for P. falciparum and human immuno-20S were run on 4–12% Bis-Tris acrylamide gels using MES SDS running buffer (Thermo Fisher Scientific). Human constitutive 20S samples were run on a 10% Bis-Tris acrylamide gel using MOPS SDS running buffer (Thermo Fisher Scientific). Gels were imaged at the Cy5 channel on a Gel Doc XR+ Documentation System (Bio-Rad) or an Amersham Typhoon Trio imager (GE Healthcare Life Sciences).

[11] = system: P. falciparum 3D7 parasites; assay: Standard 72 h antiplasmodial viability assay, 3D7; type: cell-based, Plasmodium falciparum; conditions: for Pf3D7 LD50 (72 h): sorbitol-treated ring stage, viability in next cycle (~72 h), mean ± SEM, n=3; for Pf3D7 LD50 (72-h): supplement CSV
Description: P. falciparum parasites used in this study were propagated in O+ human erythrocytes (Australian Red Cross Blood Service) in RPMI-1640, supplemented with GlutaMAX, 25 mM HEPES (Thermo Fisher Scientific), 5% (v/v) human serum (Australian Red Cross Blood Service), 0.25% (w/v) AlbuMAX II (Thermo Fisher Scientific), 10 μM D-glucose, 22 μg/mL gentamycin (Sigma-Aldrich), and 0.5 mM hypoxanthine (Sigma-Aldrich) and incubated at 37 °C in an atmosphere of 1% O2, 5% CO2, and 94% N2. Cultures were monitored by Giemsa staining of methanol-fixed blood smears. Culture medium was replaced at least every 48 h, and parasitemia was maintained below 10% to ensure health of cultures. The GFP-DD reporter strain was kindly provided by Dr. Paul Gilson, Dr. Brendan Crabb, and Dr. Mauro F. Azevedo (Burnet Institute).
as §1

[12] = system: HCT116 cells; assay: HCT116 cellular toxicity (CellTiter-Glo, 72 h); type: cell-based, human; conditions: for HCT116 LD50 (72 h): 72 h incubation, mean ± SEM or half range, 2–4 experiments; for HCT116 LD50 (72-h): supplement CSV
Description: HCT-116 and HepG2 cells were obtained from the American Type Culture Collection and maintained as recommended by the supplier. Cells were cultured in the ATCC-formulated McCoy’s 5A medium or DMEM (Life Technologies, CA), supplemented with fetal bovine serum to a final concentration of 9–10%, and incubated at 37 °C in an atmosphere of 95% air and 5% CO2. Cellular toxicity assays were performed using Promega’s CellTiter-Glo assay system. Varying concentrations of the test compounds in 5% DMSO/95% PBS were dispensed into a 384-well plate and cells added to each well. The plates were incubated at 37 °C for 72 h, and the CellTiter-Glo assay to assess cell viability was performed as described by the manufacturer (Promega).
For human cell line activity assays, cellular toxicity assays were performed as described previously.[23],[48]

[13] = system: Pf20S proteasome; assay: Validation of resynthesized Ac-P3-P2-P1-AMC substrates, Pf20S; type: biochemical, P. falciparum; conditions: 10 μM
Description: (§2) AMC (10 μM) was used as the fluorescence standard. Pf20S reaction condition: Pf20S (1 nM), human PA28 αβ (24 nM), in 50 mM Tris, pH 7.5, 5 mM MgCl2, 1 mM DTT, 0.01% BSA. Human 20S reaction condition: 0.25 nM human constitutive proteasome or immunoproteasome (Boston Biochem), PA28 αβ (24 nM) in 20 mM HEPES, pH 7.4, 0.5 mM EDTA, 0.01% BSA. The assays were read in kinetic mode at 37 °C using a BMG PHERAstar plate reader, and the rate data were normalized to activity obtained using the Ac-WLR-AMC substrate (=1000 units). For validation of substrate preferences, relevant Ac-P3-P2-P1-AMC substrates were resynthesized by CPC Scientific, CA, USA, and assayed for activity against human and P. falciparum 20S proteasomes in 96-well plates (80 μL reaction, 10 μM substrate) under the same reaction condition.

[14] = target: T1, human proteasome β2 (Homo sapiens, UniProt P49720+Q99436); assay: Validation of resynthesized Ac-P3-P2-P1-AMC substrates, human proteasome; type: biochemical; conditions: 10 μM
T1 construct: purchased Boston Biochem
Description: as §2

Sequence of Plasmodium falciparum 20S proteasome β1 (Q9UL46 2-239): as above
Sequence of Plasmodium falciparum 20S proteasome β1 (Q8I0U7 entry or part of it): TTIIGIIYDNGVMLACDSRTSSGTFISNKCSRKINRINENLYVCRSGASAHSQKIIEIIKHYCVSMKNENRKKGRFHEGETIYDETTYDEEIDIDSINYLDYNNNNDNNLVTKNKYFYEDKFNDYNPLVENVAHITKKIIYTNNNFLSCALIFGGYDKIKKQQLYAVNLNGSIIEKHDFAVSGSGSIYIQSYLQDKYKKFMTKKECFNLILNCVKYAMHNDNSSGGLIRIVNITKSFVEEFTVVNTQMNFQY
Sequence of Plasmodium falciparum 20S proteasome β1 (Q8I6T3 entry or part of it): as the sequence (Q8I6T3 entry or part of it) above
Sequence of Plasmodium falciparum 20S proteasome β1 (Q06323 whole entry, further chain): as the sequence (Q06323 whole entry, further chain) above

Compound | cross-resistance of the bortezomib-resistant parasite line (B1) [4] | bortezomib-resistant 3D7 B1 line LD50 (72 h) [4] [µM] | Bortezomib-resistant3D7 B1 LD50 (72-h) [4] [µM] | subunit specificity by BMV037 probe labeling, human constitutive proteasome and immunoproteasome [5] | Cam3.II^R539T LD50 (3 h) [6] [µM] | Cam3.IIR539T LD50 (3-h) [6] [µM] | Cam3.II^Rev LD50 (3 h) [7] [µM] | Cam3.IIRev LD50 (3-h) [7] [µM] | HepG2 LD50 (72 h) [8] [µM] | HepG2 LD50( 72-h) [8] [µM] | subunit specificity by BMV037 probe labeling, wild-type 3D7 [9] | Pf3D7 LD50 (72 h) [11] [µM] | Pf3D7 LD50 (72-h) [11] [µM] | HCT116 LD50 (72 h) [12] [µM] | HCT116 LD50 (72-h) [12] [µM] | activity as substrate for Pf20S [13] | other results
CC(C)C[C@H](NC(=O)[C@H](CCc1ccccc1)NC(=O)CN1CCOCC1)C(=O)N[C@@H](Cc1ccccc1)C(=O)N[C@@H](CC(C)C)C(=O)[C@@]1(C)CO1 [carfilzomib] | – | – | – | – | – | – | – | – | – | – | – | – | – | – | – | – | inhibitory effect against Pf20S proteasome β1 activity [1]: only weak inhibitory effect; Pf20S β5 activity with carfilzomib [2]: completely abrogated; Pf20S β2 activity with carfilzomib [3]: completely abrogated
CC(=O)N1CCC[C@H]1C(=O)N[C@@H](C)C(=O)N[C@@H](CC(C)C)B(O)O [MPI-2] | very strong cross-resistance | >2 | > 2 | preferentially inhibited β1c and β5i | 1.5 ± 0.2 | 1.5 ± 0.2 | 1.8 ± 0.2 | 1.8 ± 0.2 | 2.4 ± 0.73 | 2.4 ± 0.73 | preferentially inhibited binding of the probe to the β5 subunit | 0.16 ± 0.02 | 0.16 ± 0.02 | 1.3 ± 0.3 | 1.3 ± 0.3 | – | BMV037 labeling of the β5 active site in bortezomib-resistant parasites [10]: no longer able to prevent BMV037 labeling of the β5 active site
Ac-Trp-Trp-Lys-{AMC} | – | – | – | – | – | – | – | – | – | – | – | – | – | – | – | both active and selective for Pf20S | –
Ac-Arg-Gln-Arg-{AMC} | – | – | – | – | – | – | – | – | – | – | – | – | – | – | – | inactive | activity as substrate for human proteasome β2 [14]: good human proteasome β2 substrate
Ac-Lys-Trp-His-{AMC} | – | – | – | – | – | – | – | – | – | – | – | – | – | – | – | both active and selective for Pf20S | –
Cc1ccc(S(=O)(=O)N[C@@H](CC(=O)NCC(C)(C)C)C(=O)N[C@@H](Cc2ccccc2)C(=O)N[C@@H](CC(C)C)B(O)O)cc1 [MPI-3] | retained sensitivity | 0.054 ± 0.007 | 0.054 ± 0.007 | preferential inhibition of the β1 and β5 subunits | 0.19 ± 0.03 | 0.19 ± 0.03 | 0.21 ± 0.03 | 0.21 ± 0.03 | 0.26 ± 0.06 | 0.26 ± 0.06 | inhibited both β2 and β5 activities | 0.065 ± 0.004 | 0.065 ± 0.004 | 0.027 ± 0.002 | 0.027 ± 0.002 | – | BMV037 labeling of the human β1 and β5 subunits after treatment ([5]; 1 μM, especially constitutive proteasome): still evident; BMV037 competition profile in bortezomib-resistant parasites [10]: very similar in the bortezomib-resistant and wild-type parasites; pIC50 ([11]; Plasmodium falciparum, 3D7, dose–response profiles, n = 3, read-out: 50% viability inhibitory concentration against 3D7 parasites): ~7.22
